The results in this text go back to the SangsterLogP compilation.

Series [1] in a line: from Büchel, K. H., & Draber, W. (1969). Structure-activity relationship of photosynthesis inhibition by NH-acidic pi-excessive heteroaromatics. In H. Metzner (Ed.), Progress in Photosynthesis Research: …. Particulars: pH 7.3.

As usually defined, the logP is a log measure of how a compound divides between an organic and an aqueous phase. The low end stands for a more hydrophilic compound, the high end for a more lipophilic compound. Take `FC(F)(F)c1nc2c(Br)c(Br)c(Br)c(Br)c2[nH]1`: the logP was found to be 4.81. Still for that read-out and setting: next, `FC(F)(F)c1nc2c(Cl)c(Cl)c(Cl)cc2[nH]1`: 3.87.

Turning to `FC(F)(F)c1nc2c(Cl)c(Cl)c(Cl)c(Cl)c2[nH]1`, the logP was 3.97. Still for that read-out and setting: next, `Cc1c(C)c(Cl)c2[nH]c(C(F)(F)F)nc2c1Cl`: 3.19. One may read the logD as lipophilicity at a set pH, counting ionised and neutral species. Higher therefore signals higher lipophilicity. On to `FC(F)(F)c1nc2ncc(Cl)cc2[nH]1`, for which the logD in series [1] was 2.46. Regarding `FC(F)(F)c1nc2c(Cl)cccc2[nH]1`, the logP came to 2.93. Same read-out and setting: the figure for `Brc1nc(Br)c2[nH]c(Br)nc2n1` is 3.08. On the same count and under the same terms, the figure for `FC(F)(F)c1nc2c(Br)c(Br)c(Br)cc2[nH]1` is 4.08. `FC(F)(F)c1nc2nc3ccccc3nc2[nH]1`: the logD in series [1] was found to be 3.08. For the compound `O=[N+]([O-])c1ccc2[nH]c(C(F)(F)F)nc2c1`, the lipophilicity (logP) is 2.68. As for `Clc1nc(Cl)c(Cl)[nH]1`, the logP came to 1.85. `FC(F)(F)c1nc2c(Cl)ccc(Cl)c2[nH]1` registered a logP of 2.87. The same measure, in the same setting: next, `FC(F)(F)c1nc2cc(Br)ccc2[nH]1`: 3.57. Same read-out and setting: next, `FC(F)(F)c1nc2c(Cl)c(Cl)cc(Cl)c2[nH]1`: 3.78. The same measure, in the same setting: next, `FC(F)(F)c1nc2c(Cl)c(Cl)ccc2[nH]1`: 3.49; `Ic1nc(I)c(I)[nH]1`: 2.78; `FC(F)(F)c1nc2cc(Br)c(Br)cc2[nH]1`: 4.15. Compound `Brc1nn[nH]c1Br` displayed a logP of 2.44. On the same count and under the same terms, the figure for `FC(F)(F)c1nc2ccccc2[nH]1` is 2.67. The same measure, in the same setting: the figure for `CCCCc1ccc2[nH]c(C(F)(F)F)nc2c1` is 4.27.

Consider `CCCCCCCCc1ccc2[nH]c(C(F)(F)F)nc2c1`, for which the logP turned out to be 4.38.

The compound `FC(F)(F)c1nc2cc(Cl)ccc2[nH]1` displayed a logP of 3.39.

For the compound `Cc1cc2nc[nH]c2cc1C`, the logP is 2.35. The compound `FC(F)(F)c1nc2cnccc2[nH]1` returned a logD in series [1] of 0.94.

Turning to `FC(F)(F)c1nc2ncccc2[nH]1`, the log distribution coefficient (logD) in series [1] turned out to be 1.38. In turn, `FC(F)(F)c1nc2nc3c(Cl)cc(Cl)cc3nc2[nH]1` displayed a pH-dependent lipophilicity (logD) in series [1] of 5.18. For the compound `Brc1n[nH]c(Br)n1`, the logP is 2.24. As to `FC(F)(F)c1nc2nc3cc(Cl)ccc3nc2[nH]1`, the logD in series [1] was 3.91. The compound `FC(F)(F)c1nc2c(Cl)cc(Cl)cc2[nH]1` returned a logP of 3.49.

In the case of `CSc1nc2cc(Cl)ccc2[nH]1`, the logP came to 3.22. `FC(F)(F)c1nc2cc(Cl)c(Cl)cc2[nH]1` yielded a logP of 3.99.
